Data: paper PMC13064811, “The Role of Disulfide Bonds in the GluN1 Subunit in the Early Trafficking and Functional Properties of GluN1/GluN2 and GluN1/GluN3 NMDA Receptors” (The Journal of Neuroscience, 2026)
Read-outs that look alike come from different tables or passages of the source.

Experiments:
hGluN1-4a/hGluN2B [1] = molecular target: T1, hGluN1-4a/hGluN2B (Homo sapiens, UniProt Q05586+Q13224); format: cell-based; settings: pretreatment with 4 mM DTT or 0.5 mM DTNB, each for 2 min
T1 construct: GluN1-4a (hGluN1-4a; NP_000823.4); GluN2B (hGluN2B; NP_000825.2); expressed in transfected cells; host or cells: HEK293T

hGluN1-4a-C744Y/hGluN2A = molecular target: T2, hGluN1-4a-C744Y/hGluN2A (Homo sapiens, UniProt Q05586+Q12879, C744Y); format: cell-based; settings: for effect on peak current amplitudes (redox sensitivity): pretreatment with 4 mM DTT or 0.5 mM DTNB, each for 2 min
T2 construct: GluN1-4a (hGluN1-4a; NP_000823.4); GluN2A (hGluN2A; NP_001127879.1); expressed in transfected cells; host or cells: HEK293T

hGluN1-4a-C744Y/hGluN2B = molecular target: T3, hGluN1-4a-C744Y/hGluN2B (Homo sapiens, UniProt Q05586+Q13224, C744Y); format: cell-based
T3 construct: GluN1-4a (hGluN1-4a; NP_000823.4); GluN2B (hGluN2B; NP_000825.2); expressed in transfected cells; host or cells: HEK293T

hGluN1-4a/hGluN2A = molecular target: T4, hGluN1-4a/hGluN2A (Homo sapiens, UniProt Q05586+Q12879); format: cell-based; settings: for effect on peak current amplitudes (redox sensitivity): pretreatment with 4 mM DTT or 0.5 mM DTNB, each for 2 min
T4 construct: GluN1-4a (hGluN1-4a; NP_000823.4); GluN2A (hGluN2A; NP_001127879.1); expressed in transfected cells; host or cells: HEK293T

[2] = molecular target: YFP-hGluN1-1a-C744Y/hGluN2B (Homo sapiens, UniProt Q05586+Q13224, C744Y); format: cell-based
GluN1-C454S/GluN2B = settings: cited from earlier work
YFP-hGluN1-1a/hGluN2A = YFP-hGluN1-1a/hGluN2A (Homo sapiens, UniProt Q05586+Q12879); format: cell-based
YFP-hGluN1-1a/hGluN2B = YFP-hGluN1-1a/hGluN2B (Homo sapiens, UniProt Q05586+Q13224); format: cell-based
[3] = molecular target: YFP-hGluN1-1a-C744Y/hGluN2A (Homo sapiens, UniProt Q05586+Q12879, C744Y); format: cell-based
GluN1-C436S/GluN2B = settings: cited from earlier work
GluN1-C455S/GluN2B = settings: cited from earlier work
[4] = molecular target: GluN1-C744Y/GluN2A receptors; settings: cited from earlier work
[5] = system: GluN1-C79S-C308S/GluN2A receptors; settings: cited from earlier work
[6] = system: YFP-hGluN1/hGluN2A receptors; format: cell-based, rat
[7] = system: YFP-hGluN1/hGluN2B receptors; format: cell-based, rat
[8] = system: YFP-hGluN1-1a-C744Y/hGluN3A
[9] = system: YFP-GluN1-1a-C744S-C798S/GluN3A
hGluN1-4a/hGluN2B [10] = molecular target: T1, hGluN1-4a/hGluN2B; design: method as in Konecny et al., 2024; settings: ref Konecny et al., 2024, cited from earlier work
[11] = system: hippocampal neurons expressing YFP-hGluN1-1a or YFP-hGluN1-1a-C744Y subunits; test: NMDA-induced excitotoxicity assay; format: cell-based, rat; settings: 10 µM memantine; death induced by 30 µM NMDA and 10 µM glycine
[12] = read-out: EC50 value for glycine
[13] = 1 mM L-glutamate and 100 µM glycine, −60 mV
[14] = offset of inhibition, 1 mM glutamate and 100 µM glycine
[15] = onset of inhibition, 1 mM glutamate and 100 µM glycine

T3 sequence (Q13224 27-1484, other chains not shown): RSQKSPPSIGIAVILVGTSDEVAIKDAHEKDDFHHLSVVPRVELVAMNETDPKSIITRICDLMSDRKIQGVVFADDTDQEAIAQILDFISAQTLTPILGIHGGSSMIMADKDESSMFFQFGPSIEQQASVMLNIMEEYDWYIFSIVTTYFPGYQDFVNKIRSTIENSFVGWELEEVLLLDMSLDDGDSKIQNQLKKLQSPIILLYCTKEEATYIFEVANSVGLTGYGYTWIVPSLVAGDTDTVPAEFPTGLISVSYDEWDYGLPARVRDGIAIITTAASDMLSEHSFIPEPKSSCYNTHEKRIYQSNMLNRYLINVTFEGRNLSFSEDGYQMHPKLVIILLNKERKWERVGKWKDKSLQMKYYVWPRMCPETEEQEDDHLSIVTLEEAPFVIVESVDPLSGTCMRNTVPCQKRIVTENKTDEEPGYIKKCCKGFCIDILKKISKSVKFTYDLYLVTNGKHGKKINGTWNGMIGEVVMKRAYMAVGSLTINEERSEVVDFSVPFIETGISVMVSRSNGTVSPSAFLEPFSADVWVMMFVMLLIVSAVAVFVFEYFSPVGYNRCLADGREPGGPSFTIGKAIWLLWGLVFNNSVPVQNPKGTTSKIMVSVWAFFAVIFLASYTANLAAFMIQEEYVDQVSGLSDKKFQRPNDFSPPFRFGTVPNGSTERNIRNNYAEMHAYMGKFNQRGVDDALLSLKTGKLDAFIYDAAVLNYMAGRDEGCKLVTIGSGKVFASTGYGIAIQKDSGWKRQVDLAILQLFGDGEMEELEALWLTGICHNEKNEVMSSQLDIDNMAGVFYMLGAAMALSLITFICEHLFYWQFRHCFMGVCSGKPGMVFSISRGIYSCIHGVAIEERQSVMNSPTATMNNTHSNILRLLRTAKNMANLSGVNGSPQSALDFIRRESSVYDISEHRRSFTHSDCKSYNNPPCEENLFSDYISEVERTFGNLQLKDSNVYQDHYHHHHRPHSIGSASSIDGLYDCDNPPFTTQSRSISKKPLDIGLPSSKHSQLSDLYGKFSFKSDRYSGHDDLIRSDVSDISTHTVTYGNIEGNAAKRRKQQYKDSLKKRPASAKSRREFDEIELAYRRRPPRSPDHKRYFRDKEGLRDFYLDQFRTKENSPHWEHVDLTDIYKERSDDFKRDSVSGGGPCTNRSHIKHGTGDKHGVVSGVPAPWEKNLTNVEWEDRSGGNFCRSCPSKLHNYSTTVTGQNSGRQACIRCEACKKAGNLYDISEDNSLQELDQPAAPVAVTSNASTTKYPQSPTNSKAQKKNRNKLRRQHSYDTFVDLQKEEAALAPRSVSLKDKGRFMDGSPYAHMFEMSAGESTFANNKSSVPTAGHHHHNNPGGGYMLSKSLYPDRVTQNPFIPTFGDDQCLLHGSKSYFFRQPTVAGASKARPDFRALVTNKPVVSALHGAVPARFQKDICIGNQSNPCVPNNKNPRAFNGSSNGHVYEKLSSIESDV
YFP-hGluN1-1a-C744Y/hGluN2B, sequence (Q13224 27-1484, other chains not shown): as above
T1 sequence (Q13224 27-1484, other chains not shown): as above

With O[C@@H](CS)[C@@H](O)CS (racemic) [DTT, dithiothreitol] the “effect on peak current amplitudes (redox sensitivity)” value (shortened to “effect on peak current amplitudes”) (hGluN1-4a/hGluN2B [1]) was “reduced the peak current amplitudes”, the “effect on peak current amplitudes” value (hGluN1-4a-C744Y/hGluN2A) was “neither condition (DTT or DTNB) altered the peak current amplitudes” and the “effect on peak current amplitudes” value (hGluN1-4a-C744Y/hGluN2B; pretreatment with 4 mM DTT, 2 min) was “did not affect”. For the same compound, the “effect on peak current amplitudes” value (hGluN1-4a/hGluN2A) was “neither condition (DTT or DTNB) altered the peak current amplitudes”.
In the case of O=C(O)c1cc(SSc2ccc([N+](=O)[O-])c(C(=O)O)c2)ccc1[N+](=O)[O-] [DTNB, 5,5′-dithiobis-(2-nitrobenzoic acid)], the “effect on peak current amplitudes” value (hGluN1-4a-C744Y/hGluN2A) is reported as “neither condition (DTT or DTNB) altered the peak current amplitudes” and the “effect on peak current amplitudes” value (hGluN1-4a/hGluN2A) is reported as “neither condition (DTT or DTNB) altered the peak current amplitudes”.
For N[C@@H](CCC(=O)O)C(=O)O [L-glutamate], the “L-glutamate h (Hill coefficient)” value ([2]; YFP-hGluN1-1a-C744Y/hGluN2B, −60 mV) is listed as 0.89 ± 0.05, the EC50 (GluN1-C454S/GluN2B; read-out: EC50 L-glutamate) is listed as 1700 nM and the “L-glutamate h (Hill coefficient)” value (YFP-hGluN1-1a/hGluN2A; YFP-hGluN1-1a/hGluN2A, −60 mV) is listed as 1.36 ± 0.10. The “L-glutamate h (Hill coefficient)” value (YFP-hGluN1-1a/hGluN2B; YFP-hGluN1-1a/hGluN2B, −60 mV) was 1.06 ± 0.06, the “L-glutamate h (Hill coefficient)” value ([3]; YFP-hGluN1-1a-C744Y/hGluN2A, −60 mV) was 1.33 ± 0.09 and the EC50 (GluN1-C436S/GluN2B; read-out: EC50 L-glutamate) was 3000 nM. The EC50 (GluN1-C455S/GluN2B; read-out: EC50 L-glutamate) was 3000 nM and the EC50 ([4]; read-out: EC50 value for L-glutamate) was 1100 nM.
For CN[C@H](CC(=O)O)C(=O)O [NMDA], the “increase of the EC50 value for NMDA” value [5] is given as ~25%.
With NC1=N[C@H](O)[C@H]2[C@H]3O[C@]4(O)O[C@@H]([C@@H](O)[C@@]2(N1)[C@@H]4O)[C@]3(O)CO [TTX, tetrodotoxin] the relative surface expression [6] was “no alterations in the relative surface expression levels”.
In the case of CN1CCc2cc3c(cc2[C@H]1[C@@H]1OC(=O)c2c1ccc1c2OCO1)OCO3 [bicuculline], the relative surface expression [7] is reported as “increased relative surface expression” and the relative surface expression [6] is reported as “no alterations in the relative surface expression levels”.
For NCC(=O)O [glycine], the “Glycine h (Hill coefficient)” value [2] is listed as 0.80 ± 0.03, the EC50 ([2]; read-out: Glycine EC50) is listed as 590 ± 80 nM and the EC50 (GluN1-C454S/GluN2B; read-out: EC50 glycine) is listed as 730 nM. For the same compound, the “Glycine h (Hill coefficient)” value [8] was 0.75 ± 0.03, the EC50 ([8]; read-out: Glycine EC50) was 368000 ± 51000 nM and the EC50 [5, 12] was 2620 nM. The “Glycine h (Hill coefficient)” value (YFP-hGluN1-1a/hGluN3A) was 0.61 ± 0.02, the EC50 (YFP-hGluN1-1a/hGluN3A; read-out: Glycine EC50) was 70500 ± 10700 nM and the “h (Hill coefficient), glycine” value [9] was 0.88 ± 0.09. For the same compound, the EC50 ([9]; read-out: Glycine EC50) was 213000 ± 30800 nM, the “Glycine h (Hill coefficient)” value (YFP-hGluN1-1a/hGluN2A) was 1.46 ± 0.07 and the EC50 (YFP-hGluN1-1a/hGluN2A; read-out: Glycine EC50) was 2910 ± 290 nM. For the same compound, the “h (Hill coefficient), glycine” value (YFP-GluN1-1a/GluN3A) was 1.26 ± 0.15, the EC50 (YFP-GluN1-1a/GluN3A; read-out: Glycine EC50) was 52300 ± 13000 nM and the “Glycine h (Hill coefficient)” value (YFP-hGluN1-1a/hGluN2B) was 0.83 ± 0.06. For the same compound, the “Glycine h (Hill coefficient)” value [3] was 1.47 ± 0.08, the EC50 ([3]; read-out: Glycine EC50) was 3010 ± 410 nM and the EC50 (GluN1-C436S/GluN2B; read-out: EC50 glycine) was 720 nM. For the same compound, the EC50 (GluN1-C455S/GluN2B; read-out: EC50 glycine) was 250 nM and the EC50 [4, 12] was 700 nM.
For CC12CC3CC(C)(C1)CC(N)(C3)C2 [memantine], the “h (Hill coefficient), memantine” value (hGluN1-4a/hGluN2B [10]; [13]) is listed as 1.04 ± 0.03, the “τoff 1 μM memantine” value (hGluN1-4a/hGluN2B [10]; [14]) is listed as 758.93 ± 49.66 ms and the “τon 1 μM memantine” value (hGluN1-4a/hGluN2B [10]; [15]) is listed as 708.99 ± 49.40 ms. The neuronal death [11] was “reduced neuronal death”, the “h (Hill coefficient), memantine” value (hGluN1-4a-C744Y/hGluN2A; [13]) was 0.94 ± 0.06 and the “τoff 1 μM memantine” value (hGluN1-4a-C744Y/hGluN2A; [14]) was 458.37 ± 83.04 ms. The “τon 1 μM memantine” value (hGluN1-4a-C744Y/hGluN2A; [15]) was 292.14 ± 24.73 ms, the “h (Hill coefficient), memantine” value (hGluN1-4a-C744Y/hGluN2B; [13]) was 0.86 ± 0.05 and the “τoff 1 μM memantine” value (hGluN1-4a-C744Y/hGluN2B; [14]) was 811.87 ± 56.87 ms. For the same compound, the “τon 1 μM memantine” value (hGluN1-4a-C744Y/hGluN2B; [15]) was 519.40 ± 26.19 ms, the “h (Hill coefficient), memantine” value (hGluN1-4a/hGluN2A; [13]) was 1.04 ± 0.06 and the “τoff 1 μM memantine” value (hGluN1-4a/hGluN2A; [14]) was 510.08 ± 40.38 ms. For the same compound, the “τon 1 μM memantine” value (hGluN1-4a/hGluN2A; [15]) was 440.47 ± 39.77 ms.
